{"source": "paper PMC4406157", "about": "“Irreversible endo-Selective Diels–Alder Reactions of Substituted Alkoxyfurans: A General Synthesis of endo-Cantharimides” (Chemistry (Weinheim an Der Bergstrasse, Germany), 2015)", "key": {"[1]": {"target": "KCNH2 (human Ether-à-go-go-Related Gene) (Homo sapiens, UniProt Q12809)", "sequence (Q12809 whole entry)": "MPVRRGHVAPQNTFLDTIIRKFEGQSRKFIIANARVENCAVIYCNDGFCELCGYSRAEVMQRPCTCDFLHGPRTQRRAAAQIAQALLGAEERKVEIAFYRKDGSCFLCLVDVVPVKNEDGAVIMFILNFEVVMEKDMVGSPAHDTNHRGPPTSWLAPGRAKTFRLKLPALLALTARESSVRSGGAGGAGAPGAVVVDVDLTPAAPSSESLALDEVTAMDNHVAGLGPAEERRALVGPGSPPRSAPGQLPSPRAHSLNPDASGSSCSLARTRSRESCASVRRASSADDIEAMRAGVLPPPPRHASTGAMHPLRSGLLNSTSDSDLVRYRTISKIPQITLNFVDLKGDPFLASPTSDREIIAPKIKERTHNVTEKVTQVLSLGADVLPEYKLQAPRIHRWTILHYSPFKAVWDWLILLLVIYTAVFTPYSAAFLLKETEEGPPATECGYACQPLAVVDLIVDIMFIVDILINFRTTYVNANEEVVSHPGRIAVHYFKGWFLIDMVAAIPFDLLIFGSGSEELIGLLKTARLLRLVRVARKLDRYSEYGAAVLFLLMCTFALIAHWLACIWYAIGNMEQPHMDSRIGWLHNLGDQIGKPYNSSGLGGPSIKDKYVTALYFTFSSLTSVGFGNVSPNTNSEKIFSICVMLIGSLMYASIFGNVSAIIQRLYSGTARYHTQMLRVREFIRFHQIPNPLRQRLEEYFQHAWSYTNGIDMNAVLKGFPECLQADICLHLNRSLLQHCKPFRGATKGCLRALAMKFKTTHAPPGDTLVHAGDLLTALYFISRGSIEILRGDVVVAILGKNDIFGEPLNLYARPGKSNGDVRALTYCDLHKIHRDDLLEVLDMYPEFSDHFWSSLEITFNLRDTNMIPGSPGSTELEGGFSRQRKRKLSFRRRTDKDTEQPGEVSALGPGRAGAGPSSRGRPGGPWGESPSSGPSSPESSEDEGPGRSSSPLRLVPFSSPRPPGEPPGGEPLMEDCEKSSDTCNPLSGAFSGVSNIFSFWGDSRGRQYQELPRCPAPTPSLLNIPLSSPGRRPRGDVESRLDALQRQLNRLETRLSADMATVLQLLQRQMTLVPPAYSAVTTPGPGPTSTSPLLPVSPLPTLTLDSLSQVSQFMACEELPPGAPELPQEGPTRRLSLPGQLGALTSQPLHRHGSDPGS", "assay": "KCNH2 (hERG) Human Antagonist Barracuda Electrophysiology Population Patch Clamp", "format": "cell-based", "details": "read-out: IC50 hERG receptor (KCNH2 antagonist)", "text": "(§1) An important challenge for drug development is the generation of novel heterocyclic building blocks with suitable properties for use in screening and medicinal chemistry programs.[34] The cantharimides accessed using this methodology have appropriate physicochemical properties for lead-like compounds, including lipophilicity,[35] molecular weight and polar surface area[36] (Figure 3). Another attractive feature of these scaffolds is the high proportion of sp^3-hybridized carbon atoms, which is typically associated with improved protein binding selectivity and frequency, better solubility and a reduced chance of off-target effects.[37] Indeed, cantharimides 7, 10, endo-3 f and exo-3 f were screened against the hERG receptor (IC50>50 μM) and the aryl hydrocarbon receptor (EC50>100 μM), which are responsible for common off target effects, and no affinity was observed.\nCompound Assay Parameter Value/µM\nendo-3f KCNH2 (human Ether -à-go-go-Related Gene) Human Antagonist IC50 >50 […]\n(§2) (1 picture or pasted object on this page, not shown here)"}, "[2]": {"target": "T1, Aryl Hydrocarbon Receptor (AhR) (Homo sapiens, UniProt P35869)", "T1 construct": "LS180 CYP1A1 FRET; endogenous in cells; host or cells: LS180", "T1 sequence (P35869 11-848)": "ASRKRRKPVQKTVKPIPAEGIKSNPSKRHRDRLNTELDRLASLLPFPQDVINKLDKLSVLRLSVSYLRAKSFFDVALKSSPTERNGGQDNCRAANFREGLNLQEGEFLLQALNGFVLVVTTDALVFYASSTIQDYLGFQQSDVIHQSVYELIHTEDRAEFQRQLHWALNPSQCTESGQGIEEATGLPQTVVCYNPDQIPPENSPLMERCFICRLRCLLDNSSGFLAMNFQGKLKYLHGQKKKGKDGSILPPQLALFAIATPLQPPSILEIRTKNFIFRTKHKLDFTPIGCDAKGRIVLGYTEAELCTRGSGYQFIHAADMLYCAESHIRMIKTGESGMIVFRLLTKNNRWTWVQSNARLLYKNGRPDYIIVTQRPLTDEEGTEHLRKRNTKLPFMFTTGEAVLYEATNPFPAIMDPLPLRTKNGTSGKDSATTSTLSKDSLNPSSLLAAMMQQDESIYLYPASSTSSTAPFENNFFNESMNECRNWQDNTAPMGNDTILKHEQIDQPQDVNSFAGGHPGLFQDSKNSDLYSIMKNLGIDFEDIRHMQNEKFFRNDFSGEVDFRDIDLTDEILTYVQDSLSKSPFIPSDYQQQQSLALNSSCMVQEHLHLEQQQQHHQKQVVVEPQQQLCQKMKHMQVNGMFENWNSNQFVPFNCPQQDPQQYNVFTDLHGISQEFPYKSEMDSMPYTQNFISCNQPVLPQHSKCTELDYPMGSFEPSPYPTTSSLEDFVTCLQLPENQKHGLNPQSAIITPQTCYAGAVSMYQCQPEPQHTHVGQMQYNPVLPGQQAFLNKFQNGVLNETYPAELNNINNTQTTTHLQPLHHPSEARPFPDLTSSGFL", "assay": "Aryl Hydrocarbon Receptor (AhR) Human LS180 CYP1A1 FRET", "format": "cell-based", "details": "LS180 cells", "text": "as §1, with “observed. […]” for “observed.”\nendo-3f Aryl Hydrocarbon Receptor (AhR) Human LS180 CYP1A1 FRET - EC50 >100\nexo-3f Aryl Hydrocarbon Receptor (AhR) Human LS180 CYP1A1 FRET - EC50 >100\n7 Aryl Hydrocarbon Receptor (AhR) Human LS180 CYP1A1 FRET - EC50 >100\n10 Aryl Hydrocarbon Receptor (AhR) Human LS180 CYP1A1 FRET - EC50 >100\nas §2"}, "[3]": {"assay": "in vitro clearance in the presence of human microsomes", "format": "in vitro ADME", "details": "IVC testing performed by Cyprotex", "text": "as §1\n[38] IVC testing performed by Cyprotex, 15 Beech Lane, Macclesfield, Cheshire, SK10 2DR, UK"}}, "note": "pEC50, pIC50: −log10 of the molar value.", "data": [{"smiles": "CCOC1=C[C@H]2O[C@]1(c1ccccc1)[C@@H]1C(=O)N(C)C(=O)[C@@H]12", "note": "[exo-3 f]", "values": [{"measurement": "pIC50", "setting": "[1]", "result": "< 4.30"}, {"measurement": "pEC50", "setting": "[2]", "result": "< 4.00"}]}, {"smiles": "CN1C(=O)C2C3CC(O)C(c4ccccc4)(O3)C2C1=O", "note": "(stereo not drawn) [compound 10]", "values": [{"measurement": "pIC50", "setting": "[1]", "result": "< 4.30"}, {"measurement": "pEC50", "setting": "[2]", "result": "< 4.00"}, {"measurement": "in vitro clearance", "setting": "[3]", "result": "< 0.53", "unit": "mL/min/g"}]}, {"smiles": "CCOC1=CC2OC1(c1ccccc1)C1C(=O)N(C)C(=O)C21", "note": "(stereo not drawn) [endo-3 f]", "values": [{"measurement": "pIC50", "setting": "[1]", "result": "< 4.30"}, {"measurement": "pEC50", "setting": "[2]", "result": "< 4.00"}]}, {"smiles": "CCOC1CC2OC1(c1ccccc1)C1C(=O)N(C)C(=O)C21", "note": "(stereo not drawn) [compound 7]", "values": [{"measurement": "pIC50", "setting": "[1]", "result": "< 4.30"}, {"measurement": "pEC50", "setting": "[2]", "result": "< 4.00"}]}]}
